Laboratory results reported in US11207310B2 (PRILENIA NEUROTHERAPEUTICS LTD., priority 2016, dated 2021).
Read-outs that look alike come from different tables or passages of the source.

Tested on: patients with HD
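Further: UHDRS Total Functional Capacity items for finances and ADL, each scored 0 to 3, where 3 means normal function and 0 means unable (finances) or total care (ADL).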

SMILES: CCCN1CCC(c2cccc(S(C)(=O)=O)c2)CC1 [pridopidine, 4-[3-(methylsulfonyl)phenyl]-1-propyl-piperidine]
- Δ to placebo: UHDRS TFC Finance and ADL score, change from baseline (67.5 mg bid, BL TFC≥9 or CAG Repeat >44, week 26): 0.08
- Δ to placebo: UHDRS TFC Finance and ADL score, change from baseline (67.5 mg bid, CAG Repeats <44 and BL TMS 1st 3 Qs, week 26): 0.18
- Δ to placebo: UHDRS TFC Finance and ADL score, change from baseline (67.5 mg bid, TMS 1st 2Qs, week 26): 0.1
- Δ to placebo: UHDRS TFC Finance and ADL score, change from baseline (67.5 mg bid, TMS 1st 2Qs, week 52): 0.25
- Δ to placebo: UHDRS TFC Finance and ADL score, change from baseline (67.5 mg bid, TMS 1st 3Qs, week 26): 0.04
- Δ to placebo: UHDRS TFC Finance and ADL score, change from baseline (67.5 mg bid, TMS 1st 3Qs, week 52): −0.03
- Δ to placebo: UHDRS TFC Finance and ADL score, change from baseline (67.5 mg bid, TMS 1st Q, week 26): 0.5
- Δ to placebo: UHDRS TFC Finance and ADL score, change from baseline (67.5 mg bid, TMS 1st Q, week 52): 0.61
- Change from baseline in UHDRS TFC Finance ADL, Δ to placebo (67.5 mg bid, Week 26, ALL): 0.16
- UHDRS TFC Finance ADL, change from baseline, Δ to placebo (67.5 mg bid, Week 26, BL TFC<7, p value 0.8408): −0.06
- UHDRS TFC Finance ADL, change from baseline, Δ to placebo (67.5 mg bid, Week 26, BL TFC≥7, p value 0.0817): 0.32
- Change from baseline in UHDRS TFC Finance ADL, Δ to placebo (67.5 mg bid, Week 26, Stage 1 BL TFC 11-13): 0.65
- Change from baseline in UHDRS TFC Finance ADL, Δ to placebo (67.5 mg bid, Week 26, Stage 2 BL TFC 7-10 (FIG. 11c)): 0.26
- Change from baseline in UHDRS TFC Finance ADL, Δ to placebo (67.5 mg bid, Week 26, Stage 2 BL TFC 7-10 (FIG. 11f)): 0.54
- Change from baseline in UHDRS TFC Finance ADL, Δ to placebo (67.5 mg bid, Week 52, ALL): 0.1
- UHDRS TFC Finance ADL, change from baseline, Δ to placebo (67.5 mg bid, Week 52, BL TFC<7, p value 0.497): −0.25
- UHDRS TFC Finance ADL, change from baseline, Δ to placebo (67.5 mg bid, Week 52, BL TFC≥7, p value 0.1926): 0.27
- Change from baseline in UHDRS TFC Finance ADL, Δ to placebo (67.5 mg bid, Week 52, Stage 1 BL TFC 11-13): −0.18
- Δ to placebo: UHDRS TFC Finance and ADL score, change from baseline (90 mg bid, BL CAG Repeat >44, week 26): 0.67
- Δ to placebo: UHDRS TFC Finance and ADL score, change from baseline (90 mg bid, BL TFC≥9, week 26): 0.51
- Δ to placebo: UHDRS TFC Finance and ADL score, change from baseline (90 mg bid, BL TFC≥9 and BL TMS 1st 3 Qs, week 26): 0.45
- Δ to placebo: UHDRS TFC Finance and ADL score, change from baseline (90 mg bid, BL TFC≥9 and CAG Repeat >44, week 26): 0.83
- Δ to placebo: UHDRS TFC Finance and ADL score, change from baseline (90 mg bid, BL TFC≥9 and CAG Repeats <44 and BL TMS 1st 3 Qs, week 26): 0.81
- Δ to placebo: UHDRS TFC Finance and ADL score, change from baseline (90 mg bid, BL TFC≥9 or CAG Repeat >44, week 26): 0.52
- Δ to placebo: UHDRS TFC Finance and ADL score, change from baseline (90 mg bid, CAG Repeats <44 and BL TMS 1st 3 Qs, week 26): 0.6
- Δ to placebo: UHDRS TFC Finance and ADL score, change from baseline (90 mg bid, TMS 1st 2Qs, week 26): 0.26
- Δ to placebo: UHDRS TFC Finance and ADL score, change from baseline (90 mg bid, TMS 1st 2Qs, week 52): 0.47
- Δ to placebo: UHDRS TFC Finance and ADL score, change from baseline (90 mg bid, TMS 1st 3Qs, week 26): 0.35
- Δ to placebo: UHDRS TFC Finance and ADL score, change from baseline (90 mg bid, TMS 1st 3Qs, week 52): 0.21
- Δ to placebo: UHDRS TFC Finance and ADL score, change from baseline (90 mg bid, TMS 1st Q, week 26): 0.63
- Δ to placebo: UHDRS TFC Finance and ADL score, change from baseline (90 mg bid, TMS 1st Q, week 52): 0.57
- Change from baseline in UHDRS TFC Finance ADL, Δ to placebo (90 mg bid, Week 26, ALL): 0.31
- UHDRS TFC Finance ADL, change from baseline, Δ to placebo (90 mg bid, Week 26, BL TFC<7, p value 0.3747): 0.28
- UHDRS TFC Finance ADL, change from baseline, Δ to placebo (90 mg bid, Week 26, BL TFC≥7, p value 0.0093): 0.47
- Change from baseline in UHDRS TFC Finance ADL, Δ to placebo (90 mg bid, Week 26, Stage 1 BL TFC 11-13): 0.97
- Change from baseline in UHDRS TFC Finance ADL, Δ to placebo (90 mg bid, Week 26, Stage 2 BL TFC 7-10 (FIG. 11c)): 0.3
- Change from baseline in UHDRS TFC Finance ADL, Δ to placebo (90 mg bid, Week 26, Stage 2 BL TFC 7-10 (FIG. 11f)): 0.56
- Change from baseline in UHDRS TFC Finance ADL, Δ to placebo (90 mg bid, Week 52, ALL): 0.17
- UHDRS TFC Finance ADL, change from baseline, Δ to placebo (90 mg bid, Week 52, BL TFC<7, p value 0.4368): −0.29
- UHDRS TFC Finance ADL, change from baseline, Δ to placebo (90 mg bid, Week 52, BL TFC≥7, p value 0.0088): 0.53
- Change from baseline in UHDRS TFC Finance ADL, Δ to placebo (90 mg bid, Week 52, Stage 1 BL TFC 11-13): 0.4
- Δ to placebo: UHDRS TFC Finance and ADL score, change from baseline (112.5 mg bid, BL CAG Repeat >44, week 26): 0.47
- Δ to placebo: UHDRS TFC Finance and ADL score, change from baseline (112.5 mg bid, BL TFC≥9, week 26): 0.57
- Δ to placebo: UHDRS TFC Finance and ADL score, change from baseline (112.5 mg bid, BL TFC≥9 and BL TMS 1st 3 Qs, week 26): 0.54
- Δ to placebo: UHDRS TFC Finance and ADL score, change from baseline (112.5 mg bid, BL TFC≥9 and CAG Repeat >44, week 26): 1.02
- Δ to placebo: UHDRS TFC Finance and ADL score, change from baseline (112.5 mg bid, BL TFC≥9 and CAG Repeats <44 and BL TMS 1st 3 Qs, week 26): 1.08
- Δ to placebo: UHDRS TFC Finance and ADL score, change from baseline (112.5 mg bid, BL TFC≥9 or CAG Repeat >44, week 26): 0.4
- Δ to placebo: UHDRS TFC Finance and ADL score, change from baseline (112.5 mg bid, CAG Repeats <44 and BL TMS 1st 3 Qs, week 26): 0.57
- Δ to placebo: UHDRS TFC Finance and ADL score, change from baseline (112.5 mg bid, TMS 1st 2Qs, week 26): 0.19
- Δ to placebo: UHDRS TFC Finance and ADL score, change from baseline (112.5 mg bid, TMS 1st 2Qs, week 52): 0.44
- Δ to placebo: UHDRS TFC Finance and ADL score, change from baseline (112.5 mg bid, TMS 1st 3Qs, week 26): 0.41
- Δ to placebo: UHDRS TFC Finance and ADL score, change from baseline (112.5 mg bid, TMS 1st 3Qs, week 52): 0.09
- Δ to placebo: UHDRS TFC Finance and ADL score, change from baseline (112.5 mg bid, TMS 1st Q, week 26): 1.1
- Δ to placebo: UHDRS TFC Finance and ADL score, change from baseline (112.5 mg bid, TMS 1st Q, week 52): 0.74
- Change from baseline in UHDRS TFC Finance ADL, Δ to placebo (112.5 mg bid, Week 26, ALL): 0.38
- UHDRS TFC Finance ADL, change from baseline, Δ to placebo (112.5 mg bid, Week 26, BL TFC<7, p value 0.9361): 0.03
- UHDRS TFC Finance ADL, change from baseline, Δ to placebo (112.5 mg bid, Week 26, BL TFC≥7, p value 0.0007): 0.62
- Change from baseline in UHDRS TFC Finance ADL, Δ to placebo (112.5 mg bid, Week 26, Stage 1 BL TFC 11-13): 1.12
- Change from baseline in UHDRS TFC Finance ADL, Δ to placebo (112.5 mg bid, Week 26, Stage 2 BL TFC 7-10 (FIG. 11c)): 0.46
- Change from baseline in UHDRS TFC Finance ADL, Δ to placebo (112.5 mg bid, Week 26, Stage 2 BL TFC 7-10 (FIG. 11f)): 0.18
- Change from baseline in UHDRS TFC Finance ADL, Δ to placebo (112.5 mg bid, Week 52, ALL): 0.1
- UHDRS TFC Finance ADL, change from baseline, Δ to placebo (112.5 mg bid, Week 52, BL TFC<7, p value 0.5626): −0.22
- UHDRS TFC Finance ADL, change from baseline, Δ to placebo (112.5 mg bid, Week 52, BL TFC≥7, p value 0.0841): 0.36
- Change from baseline in UHDRS TFC Finance ADL, Δ to placebo (112.5 mg bid, Week 52, Stage 1 BL TFC 11-13): 0.64
